Laboratory results as given in patent publication US9277761B2, “Nutrition trace element composition” (priority 2003, dated 2016).
Where two headings read alike, the source gives them in different places.

Tests used:
[1] = test system: T-lymphocytes and natural killer cells; conditions: humans, 200 μg of selenium a day for eight weeks; cited from earlier work
humans [2] = conditions: cited from earlier work
[3] = cited from earlier work
[4] = Study of 52 patients receiving parenteral nutrition: zinc level in serum and whole blood; format: in vivo, humans
Protocol: In a study of 52 patients receiving parenteral nutrition, whereby the patients had haemorrhages, polytrauma/trauma and tumours, in the Vogtland-Klinikum Plauen GmbH, the trace element status of the patients was determined throughout the course of the therapy on the basis of routine medication and routine supplementation.
The goal was to establish whether the routinely administered trace element substitution led to a satisfactory supply of trace elements. For this purpose, the serum and whole blood levels of the trace elements chromium, iron, fluorine, iodine, copper, manganese, molybdenum, selenium and zinc were determined daily, for a minimum of 3 and a maximum of 18 days.
Throughout the above-mentioned observation period, the patients received the normal routine supplementation with the preparations Inzolen HK, Inzolen® sine NaCL, Selenase® and Unizink®, at various times and in various dosages. The trace elements cobalt, copper, manganese, selenium and zinc were administered by means of these preparations, in addition to the macro elements chloride, magnesium, potassium and sodium.
Corresponding to the previous routine, the Inzolen® administrations were made dependent on the daily determined serum potassium level, with the normal range being targeted. Zinc and selenium administration took place on the basis of experience in certain illness situations. The above-mentioned determination of the further macro element and trace element levels was only intended for retrospective observation of the trace element status, and was not included in the daily decision process for any supplementation.
The following reference ranges were the basis for the evaluation:
The second step was to establish what percent of the patients' trace element levels were below, within and above the reference range throughout the entire observation period (3-18 days).
Moreover, the behaviour curves of the trace element levels in the serum and whole blood of each patient were evaluated, whereby performance of further treatments/therapies (Op, CT, accompanying medication, etc.) was taken into consideration.

[5] = cited from earlier work; remark: listed apart in the source
humans [6] = conditions: cited from earlier work; for Outcome of inadvertent intravenous infusion: person
rats = conditions: intravenous administration; cited from earlier work
rabbits = conditions: cited from earlier work
guinea pigs = conditions: peroral administration; cited from earlier work
[7] = test system: various experimental animals; conditions: cited from earlier work
[8] = oral administration of 1 mg of sodium selenite; cited from earlier work
mice = conditions: cited from earlier work
[9] = Ø, entire observation period (3-18 days)
[10] = 20 healthy young men, 160 mg zinc/d for 5 weeks

SMILES: [Se] [Selenium]
- Selenium substitution required (long-term, continuous) (concluded from the results): 1000 µg/day
- Tendency towards infection (higher versus reduced selenium level): reduced tendency towards infection
- Selenium level in the serum (human, in vivo): rose up into the reference range
- Selenium whole blood levels (human, in vivo): rose only to just below the reference range
- Formation of the interleukin-2 receptor, lymphocyte proliferation, cell-destroying effect of T-lymphocytes and natural killer cells [1]: increases
- Recommended maximum single oral dose (humans [2]; in vivo, po): at most 50 μg of selenium/kg BW
- Dosage seen as harmless (humans [2]; in vivo): up to 500 μg of selenium a day
- Maximum safe ingestion over a longer time frame (WHO 1996) (humans [2]; in vivo): 400 μg of selenium a day
- Recommended maximum dose for long-term use (humans [2]; in vivo): at most 5 μg of selenium/kg BW
- Selenium content of whole blood from which symptoms can appear (humans [2]; in vivo): ≥ 1000 μg/l of whole blood
- Selenium ingestion in areas with chronic selenium poisonings (humans [2]; in vivo): 3-7 mg of selenium a day
- Portion of selenium taken in with food that leaves the organism renally ([3]; in vivo): 50-70%

SMILES: [Zn] [Zinc]
- Zinc in serum, patients Above reference range ([4]; Day 1): 4%
- Zinc in serum, patients Below reference range ([4]; Day 1): 76%
- Zinc in serum, patients Within reference range ([4]; Day 1): 20%
- Zinc in whole blood, patients Above reference range ([4]; Day 1): 10%
- Zinc in whole blood, patients Below reference range ([4]; Day 1): 6%
- Zinc in whole blood, patients Within reference range ([4]; Day 1): 84%
- Zinc in serum, patients Above reference range ([4]; Day 2): 2%
- Zinc in serum, patients Below reference range ([4]; Day 2): 85%
- Zinc in serum, patients Within reference range ([4]; Day 2): 13%
- Zinc in whole blood, patients Above reference range ([4]; Day 2): 8%
- Zinc in whole blood, patients Below reference range ([4]; Day 2): 18%
- Zinc in whole blood, patients Within reference range ([4]; Day 2): 75%
- Zinc in serum, patients Above reference range ([4]; Day 3): 0%
- Zinc in serum, patients Below reference range ([4]; Day 3): 78%
- Zinc in serum, patients Within reference range ([4]; Day 3): 22%
- Zinc in whole blood, patients Above reference range ([4]; Day 3): 8%
- Zinc in whole blood, patients Below reference range ([4]; Day 3): 12%
- Zinc in whole blood, patients Within reference range ([4]; Day 3): 80%
- Zinc in serum, patients Above reference range ([4]; Day 4): 0%
- Zinc in serum, patients Below reference range ([4]; Day 4): 86%
- Zinc in serum, patients Within reference range ([4]; Day 4): 14%
- Zinc in whole blood, patients Above reference range ([4]; Day 4): 5%
- Zinc in whole blood, patients Below reference range ([4]; Day 4): 14%
- Zinc in whole blood, patients Within reference range ([4]; Day 4): 81%
- Zinc in serum, patients Above reference range ([4]; Day 5): 3%
- Zinc in serum, patients Below reference range ([4]; Day 5): 80%
- Zinc in serum, patients Within reference range ([4]; Day 5): 17%
- Zinc in whole blood, patients Above reference range ([4]; Day 5): 6%
- Zinc in whole blood, patients Below reference range ([4]; Day 5): 17%
- Zinc in whole blood, patients Within reference range ([4]; Day 5): 77%
- Zinc in serum, patients Above reference range ([4]; Day 6): 4%
- Zinc in serum, patients Below reference range ([4]; Day 6): 68%
- Zinc in serum, patients Within reference range ([4]; Day 6): 29%
- Zinc in whole blood, patients Above reference range ([4]; Day 6): 4%
- Zinc in whole blood, patients Below reference range ([4]; Day 6): 7%
- Zinc in whole blood, patients Within reference range ([4]; Day 6): 89%
- Zinc in serum, patients Above reference range ([4]; Day 7): 0%
- Zinc in serum, patients Below reference range ([4]; Day 7): 63%
- Zinc in serum, patients Within reference range ([4]; Day 7): 38%
- Zinc in whole blood, patients Above reference range ([4]; Day 7): 8%
- Zinc in whole blood, patients Below reference range ([4]; Day 7): 8%
- Zinc in whole blood, patients Within reference range ([4]; Day 7): 83%
- Zinc in serum, patients Above reference range ([4]; Day 8): 0%
- Zinc in serum, patients Below reference range ([4]; Day 8): 50%
- Zinc in serum, patients Within reference range ([4]; Day 8): 50%
- Zinc in whole blood, patients Above reference range ([4]; Day 8): 8%
- Zinc in whole blood, patients Below reference range ([4]; Day 8): 4%
- Zinc in whole blood, patients Within reference range ([4]; Day 8): 88%
- Zinc in serum, patients Above reference range ([4]; Day 9): 4%
- Zinc in serum, patients Below reference range ([4]; Day 9): 43%
- Zinc in serum, patients Within reference range ([4]; Day 9): 52%
- Zinc in whole blood, patients Above reference range ([4]; Day 9): 9%
- Zinc in whole blood, patients Below reference range ([4]; Day 9): 0%
- Zinc in whole blood, patients Within reference range ([4]; Day 9): 91%
- Zinc in serum, patients Above reference range ([4]; Day 10): 5%
- Zinc in serum, patients Below reference range ([4]; Day 10): 33%
- Zinc in serum, patients Within reference range ([4]; Day 10): 62%
- Zinc in whole blood, patients Above reference range ([4]; Day 10): 5%
- Zinc in whole blood, patients Below reference range ([4]; Day 10): 0%
- Zinc in whole blood, patients Within reference range ([4]; Day 10): 95%
- Zinc in serum, patients Above reference range ([4]; Day 11): 16%
- Zinc in serum, patients Below reference range ([4]; Day 11): 16%
- Zinc in serum, patients Within reference range ([4]; Day 11): 68%
- Zinc in whole blood, patients Above reference range ([4]; Day 11): 11%
- Zinc in whole blood, patients Below reference range ([4]; Day 11): 0%
- Zinc in whole blood, patients Within reference range ([4]; Day 11): 89%
- Zinc in serum, patients Above reference range ([4]; Day 12): 7%
- Zinc in serum, patients Below reference range ([4]; Day 12): 20%
- Zinc in serum, patients Within reference range ([4]; Day 12): 73%
- Zinc in whole blood, patients Above reference range ([4]; Day 12): 7%
- Zinc in whole blood, patients Below reference range ([4]; Day 12): 7%
- Zinc in whole blood, patients Within reference range ([4]; Day 12): 87%
- Zinc in serum, patients Above reference range ([4]; Day 13): 14%
- Zinc in serum, patients Below reference range ([4]; Day 13): 7%
- Zinc in serum, patients Within reference range ([4]; Day 13): 79%
- Zinc in whole blood, patients Above reference range ([4]; Day 13): 7%
- Zinc in whole blood, patients Below reference range ([4]; Day 13): 7%
- Zinc in whole blood, patients Within reference range ([4]; Day 13): 86%
- Zinc in serum, patients Above reference range ([4]; Day 14): 0%
- Zinc in serum, patients Below reference range ([4]; Day 14): 8%
- Zinc in serum, patients Within reference range ([4]; Day 14): 92%
- Zinc in whole blood, patients Above reference range ([4]; Day 14): 0%
- Zinc in whole blood, patients Below reference range ([4]; Day 14): 0%
- Zinc in whole blood, patients Within reference range ([4]; Day 14): 100%
- Zinc in serum, patients Above reference range ([4]; Day 15): 0%
- Zinc in serum, patients Below reference range ([4]; Day 15): 8%
- Zinc in serum, patients Within reference range ([4]; Day 15): 92%
- Zinc in whole blood, patients Above reference range ([4]; Day 15): 8%
- Zinc in whole blood, patients Below reference range ([4]; Day 15): 0%
- Zinc in whole blood, patients Within reference range ([4]; Day 15): 92%
- Zinc in serum, patients Above reference range ([4]; Day 16): 0%
- Zinc in serum, patients Below reference range ([4]; Day 16): 9%
- Zinc in serum, patients Within reference range ([4]; Day 16): 91%
- Zinc in whole blood, patients Above reference range ([4]; Day 16): 9%
- Zinc in whole blood, patients Below reference range ([4]; Day 16): 0%
- Zinc in whole blood, patients Within reference range ([4]; Day 16): 91%
- Zinc in serum, patients Above reference range ([4]; Day 17): 10%
- Zinc in serum, patients Below reference range ([4]; Day 17): 10%
- Zinc in serum, patients Within reference range ([4]; Day 17): 80%
- Zinc in whole blood, patients Above reference range ([4]; Day 17): 10%
- Zinc in whole blood, patients Below reference range ([4]; Day 17): 0%
- Zinc in whole blood, patients Within reference range ([4]; Day 17): 90%
- Zinc in serum, patients Above reference range ([4]; Day 18): 10%
- Zinc in serum, patients Below reference range ([4]; Day 18): 10%
- Zinc in serum, patients Within reference range ([4]; Day 18): 80%
- Zinc in whole blood, patients Above reference range ([4]; Day 18): 20%
- Zinc in whole blood, patients Below reference range ([4]; Day 18): 0%
- Zinc in whole blood, patients Within reference range ([4]; Day 18): 80%
- Zinc level in the serum ([4]; patients with normal whole blood zinc receiving zinc, even high administration): scarcely influenced
- Zinc in serum, patients Above reference range [4, 9]: 14%
- Zinc in serum, patients Below reference range [4, 9]: 38%
- Zinc in serum, patients Within reference range [4, 9]: 49%
- Zinc in whole blood, patients Above reference range [4, 9]: 7%
- Zinc in whole blood, patients Below reference range [4, 9]: 5%
- Zinc in whole blood, patients Within reference range [4, 9]: 88%
- Concentration in the cerebral spinal fluid relative to plasma concentration ([5]; humans): a tenth
- Portion excreted through the faeces ([5]; in vivo): 90%
- Portion resorbed from the nourishment ([5]; physiological conditions, roughly): 20-30%
- Effect of repeated administration (humans [6]; 150 mg of zinc a day over 2 years): copper deficiency
- Outcome of inadvertent intravenous infusion (humans [6]; 1.5 g zinc over 60 hours): ended fatally
- HDL cholesterol level (humans [6]; [10]): significantly reduced
- Total cholesterol, triglycerides and LDL cholesterol (humans [6]; [10]): normal levels
- Effect on the blood lipid levels (humans [6]; healthy young women, 100 mg daily for 8 weeks): no effect
- Toxicity (humans [6]; toxic range not starting until quantities in the grams): low toxicity

SMILES: O=S(=O)([O-])[O-].[Zn+2] [ZnSO4]
- Dose considered deadly for adults (humans [6]; adults): 5 g
- Dose resulting in vomiting (humans [6]; in vivo): 1 to 2 g
- Outcome of inadvertent intravenous infusion (humans [6]; total 7.4 g zinc within 60 hours): death

SMILES: O=[74Se]([O-])[O-].[Na+].[Na+] [[^74Se] sodium selenite]
- Dose excreted ([3]; intravenous 82 μg of selenium, first 24 hours): 18%
- Absorbed dose excreted through the urine ([3]; peroral administration, first 24 hours): 12%

SMILES: O=[75Se]([O-])[O-].[Na+].[Na+] [[^75Se] sodium selenite]
- Dose excreted ([3]; intravenous, first 24 hours): 12%
- Additional portion of dose eliminated in second phase ([3]; intravenous): 40%
- Biological half-life of second phase ([3]; intravenous): 20 days
- Half-life of the third phase ([3]; intravenous): 115 days
- Absorbed dose excreted through the urine ([3]; oral 10 μg, first two weeks): 14-20%
- Half-life of total body retention, 1st phase ([3]; oral 10 μg): 0.7 to 1.2 days
- Half-life of total body retention, 2nd phase ([3]; oral 10 μg): 7 to 11 days
- Half-life of total body retention, 3rd phase ([3]; oral 10 μg): 96 to 144 days

SMILES: [Zn] [elementary zinc]
- Symptoms after ingestion (humans [6]; 12 g/d for 2 days, child): recklessness, lethargy and dysgraphia

SMILES: O=[Se](O)O [selenous acid]
- Outcome of acute selenium poisoning (humans [2]; two children, 10-15 ml weapon-cleaning agent with approx. 1.8% selenous acid, roughly 110 mg selenium): died

SMILES: O=[Se](O)O [sodium selenite]
- LD50 (rats): 5.7 mg/kg BW
- LD50 (rabbits; intravenous administration): 0.9 mg/kg BW
- LD50 (rabbits; peroral administration): 2.25 mg/kg BW
- LD50 (guinea pigs): 2.3 mg/kg BW
- Acute toxicity [7]: 1-5 mg of selenium per kg BW
- Absorption, average portion [8]: 62±14%
- LD50 (mice; intravenous administration): 2.2 mg of selenium/kg BW
- LD50 (mice; peroral administration): 3.2-3.5 mg/kg BW
- Indications of selenium poisoning (humans [2]; four persons, 2 mg selenium a day for 20-40 days): did not result in any indications of selenium poisoning
- Chronic toxicity (humans [2]; in vivo): 3-7 mg of selenium/day
- Whole blood concentration at which first symptoms of poisoning manifest (humans [2]; in vivo): 1.05 mg of selenium/l whole blood
- Dosage seen as harmless (humans [2]; long-term use (longer than three months)): up to 550 μg of selenium a day
- Symptoms of selenium poisoning (humans [2]; peroral 50 μg selenium per kg bodyweight over one year, patients with neuronal ceroid lipofuscinosis): no symptoms of selenium poisoning were observed
- Symptoms of chronic poisoning (humans [2]; person, 2 mg sodium selenite (900 μg selenium) daily for more than two years): fingernails were thickened and brittle
- Symptoms of poisoning (humans [2]; person, approx. 27 mg selenium a day for approx. two months): suffered from lassitude, nausea, vomiting, depression, bad breath, hair loss and nails that fell off
